Patent US11174243B2, “Succinate forms and compositions of Bruton's tyrosine kinase inhibitors” (Sunesis Pharmaceuticals, Inc., priority 2016, dated 2021)
Like-named read-outs stand apart in the source and are kept apart here. Values belong to the compound of their own block, whether it stands above or below them.

Columns and labels:
Single-dose PK in monkey = assay type: in vivo; settings: male, cynomolgus monkey, plasma
Procedure: (§1) A series of single-dose PK studies were conducted in rat, dog, and monkey to investigate the plasma PK of Compound 2 following single oral and single intravenous (IV) administration of Compound 2.
The PK of Compound 2 was studied in the male cynomolgus monkey (n=3) following single IV administration of Compound 2 at 1 mg/kg and single oral administration at 5 mg/kg (DRN105-0042). Following each administration, serial blood samples were collected at 0.08, 0.25, 0.5, 1, 2, 4, 7, 16, and 24 hours postdose.

[1] = Phase 1a single-dose study in humans: safety; assay type: in vivo, human
Procedure: (§2) A first-in-human Phase 1a randomized, double-blind, placebo-controlled, single-dose study, was conducted in 3 stages: In Stage 1, four sequential cohorts of 8 subjects each were randomly assigned to receive progressively higher single oral administrations of Compound 2 at doses of 50, 100, 200, and 300 mg (n=6 per cohort; 3 males and 3 females) or placebo (n=2 per cohort; 1 male and 1 female).
(§3) The primary endpoint of safety was assessed by monitoring adverse events (AEs), laboratory abnormalities, and cardiac findings (ECG). Secondary endpoints included evaluation of the PK parameters of area under the plasma concentration-time curve (AUC), maximum plasma concentration (Cmax), time of maximum concentration (Tmax), apparent volume of distribution (Vd/F), terminal elimination half-life (t1/2), terminal elimination rate constant (λz), and apparent clearance (Cl/F) as well as the PD parameter of BTK inhibition in whole blood.

CYP3A4 = biological target: T1, CYP3A4 (Homo sapiens, UniProt P08684); test: Phase 1a study Stage 3: drug-drug interaction with itraconazole (effect of CYP3A4 inhibition); assay type: in vivo; settings: for Cmax / AUC(0-t) / AUC(0-inf) / Tmax: plasma, oral; for Cmax / AUC(0-t) / AUC(0-inf): arithmetic mean (CV %); for Tmax: median (min, max)
T1 construct: from tissue; host or cells: human subjects in vivo
T1 sequence (P08684 whole entry): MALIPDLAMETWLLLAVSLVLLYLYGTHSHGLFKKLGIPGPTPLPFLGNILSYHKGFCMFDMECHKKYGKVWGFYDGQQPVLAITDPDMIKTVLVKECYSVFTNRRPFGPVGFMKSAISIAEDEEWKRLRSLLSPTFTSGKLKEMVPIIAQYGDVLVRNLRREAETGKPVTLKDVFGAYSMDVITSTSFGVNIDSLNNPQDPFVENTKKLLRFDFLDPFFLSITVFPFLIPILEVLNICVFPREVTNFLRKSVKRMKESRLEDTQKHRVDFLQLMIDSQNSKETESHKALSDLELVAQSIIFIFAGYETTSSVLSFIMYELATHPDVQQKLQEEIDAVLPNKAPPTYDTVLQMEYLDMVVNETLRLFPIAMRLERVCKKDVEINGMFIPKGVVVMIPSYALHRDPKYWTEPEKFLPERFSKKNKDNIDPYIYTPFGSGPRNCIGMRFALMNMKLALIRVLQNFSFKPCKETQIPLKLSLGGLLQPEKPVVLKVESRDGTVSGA
Procedure: Stage 3 evaluated 12 subjects from Cohort 6 who had already received Compound 2 in Stage 2 of the study. Compound 2 at a dose of 25 mg was administered once in the fasted state on Day 1 and subjects were followed for safety, PK and PD evaluations. On Day 4, subjects then received itraconazole (a potent CYP3A4 inhibitor) that was administered at a dose of 200 mg twice daily on Days 4 through 9 in the fed state (except at the morning dose on Day 7). In the morning of Day 7, subjects received itraconazole at a dose of 200 mg followed shortly by administration of Compound 2 at a dose of 25 mg (with both drugs given in the fasted state). Subjects were then followed for safety, PK and PD evaluations on Days 7, 8, 9, and 10. PK results observed following administration of Compound 2 alone on Day 1 were compared with those observed in these same subjects after administration of Compound 2 with itraconazole on Day 7.
The effect of the strong CYP3A4 inhibitor, itraconazole, on the pharmacokinetics of an oral dose of 25 mg Compound 2 was evaluated in 12 subjects (Table 7a). […].

Single-dose PK in dog = assay type: in vivo, male beagle dogs; settings: beagle, plasma
Procedure: as §1
A study was conducted to assess the PK of Compound 2 formulated as a suspension or as a solid in capsule. […] Three different dogs were used for each dose level. […] Inter-animal variability in Compound 2 free base plasma systemic exposure was observed after IV and oral administration irrespective of formulation.

[2] = Phase 1a single-dose study in humans, Stage 1: pharmacokinetics; assay type: in vivo, human; settings: for Cmax / Vd/F / AUC(0-t) / Tmax / half-life: both sexes, human, plasma; for AUC(0-t): read-out: AUC0-24
Procedure: as §2, §3
Compound 2 is a succinate salt. Plasma concentrations of the free base (Compound 1) were measured and used for estimation of PK parameters and elaboration of concentration/PD relationships.

CD86 expression = test: CpG induced CD86 expression (flow cytometry); assay type: cell-based, human; settings: 3.2 μM CpG stimulation, 1 μM
Procedure: (§4) Methods: Primary CLL B cells were isolated from the whole blood of consented patients by FICOLL density centrifugation and rosette-sep negative selection. Annexin V and propidium iodide flow cytometry was used to measure patient CLL cell viability and 7AAD was used to measure viability in stromal co-culture. CD40 and CD86 expression was evaluated via flow cytometry subsequent to sustained 3.2 μM CpG stimulation. BCR signaling in primary CLL cells was investigated by immunoblot succeeding 1 hour treatment and following 1 hour or 24 hours of incubation with Compound 1 in XLA cell lines. MTS values were read after 24 hours of drug incubation. ITK inhibition was investigated via immunoblot after stimulation with anti-CD3 and anti-CD28 and incubation with Compound 1 for 1 hour. Compound 1 was used at a concentration of 1 μM in preclinical studies unless otherwise noted.

primary CLL B cells = test: Viability of primary patient CLL cells (Annexin V and propidium iodide flow cytometry); assay type: cell-based; settings: Homo sapiens, B-cell, 48 hours, read-out: viability, that of the untreated condition
Procedure: as §4

CD40 expression = test: CpG induced CD40 expression (flow cytometry); assay type: cell-based, human; settings: 3.2 μM CpG stimulation, 1 μM
Procedure: as §4

[3] = 1 mg/kg, IV, dose 1, 70% PEG400/H2O, free base measured
[4] = 5 mg/kg, PO, dose 5, 0.1% CMC/0.2% Tween, free base measured
[5] = human, Compound 2 25 mg fasted + itraconazole
[6] = human, Compound 2 25 mg fasted, N = 12
[7] = male, 5 mg/kg, PO, dose not given, 0.1% CMC/0.2% Tween, free base measured
[8] = oral, Cohort 1 (50 mg), mean (SD)
[9] = oral, Cohort 2 (100 mg), mean (SD)
[10] = oral, Cohort 3 (200 mg), mean (SD)
[11] = oral, Cohort 4 (300 mg), mean (SD)

- AUC(0-inf) (Single-dose PK in monkey; [3]): 1920 ng·h/mL
- C0 (Single-dose PK in monkey; [3]): 1600 ng/mL
- half-life (Single-dose PK in monkey; [3]): 1.9 h
- AUC(0-inf) (Single-dose PK in monkey; [4]): 3220 ng·h/mL
- Cmax (Single-dose PK in monkey; [4]): 1400 ng/mL
- Tmax (Single-dose PK in monkey; [4]): 1.5 h
- bioavailability (Single-dose PK in monkey; 5 mg/kg, PO, dose 5, 0.1% CMC/0.2% Tween, read-out: % F (oral bioavailability)): 33%
- CL/F (CYP3A4; human, in vivo, 25 mg): 6.34 (41.6) L/hr
- Vd/F (CYP3A4; human, in vivo, 25 mg): 57.5 L
- half-life (CYP3A4; human, in vivo, 25 mg): 6.9 h
- Cmax (CYP3A4; human, Compound 2 25 mg fasted + itraconazole, N = 12): 1680 ng/mL
- AUC(0-t) (CYP3A4; [5]): 28000 ng·h/mL
- AUC(0-inf) (CYP3A4; human, Compound 2 25 mg fasted + itraconazole, N = 11): 32200 ng·h/mL
- Tmax (CYP3A4; [5]): 1.5 h
- Cmax (CYP3A4; [6]): 873 ng/mL
- Tmax (CYP3A4; [6]): 1 h
- AUC(0-inf) (CYP3A4; human, Compound 2 25 mg fasted): 4620 ng·h/mL
- AUC(0-t) (CYP3A4; human, Compound 2 25 mg fasted): 4420 ng·h/mL
- AUC(0-inf) (Single-dose PK in dog; [3]): 1080 ng·h/mL
- C0 (Single-dose PK in dog; [3]): 1920 ng/mL
- half-life (Single-dose PK in dog; [3]): 0.8 h
- AUC(0-inf) (Single-dose PK in dog; [7]): 3520 ng·h/mL
- Cmax (Single-dose PK in dog; [7]): 2970 ng/mL
- Tmax (Single-dose PK in dog; [7]): 0.8 h
- bioavailability (Single-dose PK in dog; male, 5 mg/kg, PO, dose not given, 0.1% CMC/0.2% Tween, read-out: % F (oral bioavailability)): 65%
SMILES: NC(=O)[C@H]1CCN(c2ncnc(N)c2F)C[C@@H]1N1CCC[C@@H](Nc2cc(Cl)cc(C(F)(F)F)c2)C1=O [Compound 2]
- subjects with treatment-emergent AEs (TEAEs) ([1]; 24 subjects, single oral doses 50-300 mg, 8 subjects): 33%
- subjects with treatment-related TEAEs ([1]; 24 subjects, single oral doses 50-300 mg, six subjects): 25%
- Grade 3 or higher AEs ([1]; single oral doses): No Grade 3 or higher AEs were reported
- SAEs ([1]; single oral doses): No SAEs were reported
- dose-dependent toxicity ([1]; single oral doses 50-300 mg): No obvious pattern of dose-dependent toxicity was observed

- t1/2 ([2]; 50 mg (single dose), after dosing with Compound 2, mean): 8.14 h
- CL/F ([2]; Cohort 1 (50 mg), mean (SD)): 6139 (1250) mL/hr
- CL/F ([2]; Cohort 2 (100 mg), mean (SD)): 7162 (2900) mL/hr
- CL/F ([2]; Cohort 3 (200 mg), mean (SD)): 7886 (3724) mL/hr
- CL/F ([2]; Cohort 4 (300 mg), mean (SD)): 7615 (1595) mL/hr
- Cmax ([2]; oral, 50 mg (single dose), after dosing with Compound 2, mean): 1910 ng/mL
- Vd/F [2, 8]: 69.6 L
- AUC(0-t) [2, 8]: 7830 ng·h/mL
- Tmax ([2]; oral, Cohort 1 (50 mg), mean (SD), read-out: Tmax): 1.17 h
- half-life ([2]; oral, Cohort 1 (50 mg), mean (SD), read-out: t1/2 (converted)): 8.14 h
- Vd/F [2, 9]: 72.9 L
- Cmax ([2]; oral, Cohort 2 (100 mg), mean (SD), N 6): 3400 ng/mL
- AUC(0-t) [2, 9]: 14500 ng·h/mL
- Tmax ([2]; oral, Cohort 2 (100 mg), mean (SD), read-out: Tmax): 1.25 h
- half-life ([2]; oral, Cohort 2 (100 mg), mean (SD), read-out: t1/2 (converted)): 7.43 h
- Vd/F [2, 10]: 118 L
- Cmax ([2]; oral, Cohort 3 (200 mg), mean (SD), N 6): 5960 ng/mL
- AUC(0-t) [2, 10]: 29900 ng·h/mL
- Tmax ([2]; oral, Cohort 3 (200 mg), mean (SD), read-out: Tmax): 1 h
- half-life ([2]; oral, Cohort 3 (200 mg), mean (SD), read-out: t1/2 (converted)): 10.5 h
- Vd/F [2, 11]: 177 L
- Cmax ([2]; oral, Cohort 4 (300 mg), mean (SD), N 6): 6800 ng/mL
- AUC(0-t) [2, 11]: 35400 ng·h/mL
- Tmax ([2]; oral, Cohort 4 (300 mg), mean (SD), read-out: Tmax): 1.5 h
- half-life ([2]; oral, Cohort 4 (300 mg), mean (SD), read-out: t1/2 (converted)): 17 h
- half-life ([2]; 50-300 mg single oral dose, read-out: Mean t1/2 values across all dose cohorts): 7.43 to 17 h
- Cmax ([2]; Cohort 1 (50 mg Compound 2, single oral), mean (SD), N 6): 1910 ng/mL
- Tmax ([2]; all dose cohorts, oral, range: 0.5-3.0, read-out: median Tmax): 1 h
- increase of plasma exposure (Cmax) with itraconazole (CYP3A4; 25 mg Compound 2 + itraconazole vs alone): about 2 fold
- CYP3A4 substrate classification (CYP3A4; ≥5-fold increase in exposure in the presence of CYP enzyme inhibition): sensitive substrate for CYP3A4
SMILES: NC(=O)[C@H]1CCN(c2ncnc(N)c2F)C[C@@H]1N1CCC[C@@H](Nc2cc(Cl)cc(C(F)(F)F)c2)C1=O [Compound 1, (3R,3′R,4′S)-1′-(6-amino-5-fluoropyrimidin-4-yl)-3-((3-chloro-5-(trifluoromethyl)phenyl)amino)-2-oxo-[1,3′-bipiperidine]-4′-carboxamide]
- dose proportionality of total exposure (AUC and Cmax) ([2]; 50-300 mg single oral dose): increased approximately proportionally with dose
- decrease of CpG induced CD86 expression (CD86 expression): 15.7%
- viability at 0.1 µM (primary CLL B cells; 0.1 μM): 96.7%
- viability at 1 µM (primary CLL B cells; 1.0 μM): 96.1%
- viability at 10 µM (primary CLL B cells; 10.0 μM): 88.1%
- decrease of CpG induced CD40 expression (CD40 expression): 8.7%
